Assay results reported in patent publication US20160237012A1, “ANTICANCER AGENTS AND PROCESS OF MAKING THEREOF” (Golden Biotechnology Corporation, priority 2015, published 2016).

Assays:
Hep 3B = conditions: based on the prior published result; read-out: IC50 against Hep 3B; cited from earlier work
Hep3B = assay: MTT cell viability assay, Hep3B; assay type: cell-based; conditions: 48 hours, human hepatoma Hep3B, average of at least six independent experiments
Description: (§1) Human hepatoma (HepG2 and Hep 3B) and human breast cancer (MCF-7) cell lines were obtained from American Type Culture Collection (Rockville, Md., USA). HepG2 and Hep 3B cells were cultured in MEM alpha medium (Invitrogen/Gibco BRL, Grand Island, N.Y., USA) and MCF-7 cells were cultured in DMEM medium (Invitrogen/Gibco BRL). All cells were cultured at 37° C. in 5% CO2 in culture media supplemented with 10% fetal bovine serum (Invitrogen/Gibco BRL) and 100 U/ml streptomycin and penicillin (Invitrogen/Gibco BRL). For treatment, cells were seeded in six-well plates at 6.25×10^5 cells/well. On the following day, the media were changed to serum-free and the cells were serum-starved for 24 h. […]
(§2) The MTT (3-(4, 5-dimethylthiazol-2-yl)-2,5-diphenyl tetrazolium bromide) cell viability assay is a colorimetric assay system, which measures the reduction of a tetrazolium component (MTT) into an insoluble blue/purple colored formazan product by succinate tetrazolium reductase in mitochondria of viable cells. The absorbance of the complex is read spectrophotometrically and is directly proportional to the number of live or viable cells. […]
(§3) To each of the 96 well plates seeded at a density of 5,000 cells per well, a known concentration of test compounds were added individually. […] The IC50 value was determined by a nonlinear curve fitting program using the GraphPad prism software v 4.01.

HepG2 = assay: MTT cell viability assay, HepG2; assay type: cell-based; conditions: 48 hours, human hepatoma HepG2, average of at least six independent experiments
Description: as §1, §2, §3

MCF-7 = assay: MTT cell viability assay, MCF-7; assay type: cell-based; conditions: MCF7, 48 hours, human breast cancer MCF-7, average of at least six independent experiments
Description: as §1, §2, §3

IC50 (Hep3B) [nM]	IC50 (HepG2) [nM]	IC50 (MCF-7) [nM]	SMILES	IC50 (Hep 3B) [nM]
			COC1=C(OC)C(O)C(CC=C(C)CCC=C(C)CCC=C(C)C)C(C)C1=O (stereo not shown) [4-hydroxy-2,3-dimethoxy-6-methyl-5-(3,7,11-trimethyldodeca-2,6,10-trienyl)cyclohex-2-enone]	> 30000
325	948	519	CC(C)=CCC/C(C)=C/CC/C(C)=C/Cc1c(O)ccc(O)c1C [Compound 1]	
4.3	156	108	CC(C)=CCC/C(C)=C/CC/C(C)=C/CC1C(O)C=CC(=O)C1C (stereo not shown) [Compound 3]	
